Experimental data as given in PMC4882280 (Journal of clinical pharmacology, 2015).
Where two headings read alike, the source gives them in different places. One block for each compound: values may come before it.

Key:
[1] = postmenopausal volunteers, single oral 25 mg dose; cited from earlier work
UGT2B17 = settings: human liver microsomes UGT2B17(*2/*2) versus UGT2B17(*1/*1), P=0.023; cited from earlier work
[2] = single oral 25 mg exemestane; for concentration at 24 h: female, human, urine, po, 25 mg, C24 hr (SD), 24-hr urine concentration
[3] = for Plasma concentrations at 24 and 72 hours after exemestane administration: lower limit of quantitation 0.2 (exemestane) and 0.1 ng/ml (17-hydroexemestane); for AUC(0-t): AUC0-8, plasma; for AUC(0-inf): AUC0-∞ (SD); for Cmax: Cmax (SD); for Tmax: Tmax (SD)
[4] = with beta-glucuronidase, UGT2B17 *1/*1 (n = 8)
[5] = with beta-glucuronidase, UGT2B17 *2/*2 (n = 6)
[6] = without beta-glucuronidase, UGT2B17 *1/*1 (n = 8)
[7] = without beta-glucuronidase, UGT2B17 *2/*2 (n = 6)
[8] = plasma, range over subjects, single oral 25 mg exemestane
[9] = female, human, plasma, po, 25 mg, with beta-glucuronidase (total), UGT2B17 *1/*1 (n = 8), single oral 25 mg exemestane
[10] = female, human, plasma, po, 25 mg, with beta-glucuronidase (total), UGT2B17 *2/*2 (n = 6), single oral 25 mg exemestane
[11] = female, human, plasma, po, 25 mg, without beta-glucuronidase (free), UGT2B17 *1/*1 (n = 8), single oral 25 mg exemestane
[12] = female, human, plasma, po, 25 mg, without beta-glucuronidase (free), UGT2B17 *2/*2 (n = 6), single oral 25 mg exemestane

Structure (SMILES): C=C1C[C@H]2[C@@H]3CC[C@H](O)[C@@]3(C)CC[C@@H]2[C@@]2(C)C=CC(=O)C=C12 [17-hydroexemestane]
maximal plasma concentrations (Cmax), range in previous studies [1]: 0.22 to 2.44 ng/mL | plasma concentrations over time (AUC), range in previous studies [1]: 2.46 to 20.89 ng·h/mL | lower intrinsic clearance (Vmax/Km) (UGT2B17): 36 fold | C24 hr (SD), 24-hr urine concentration [2, 4]: 2.3 (1.2) ng/ml | C24 hr (SD), 24-hr urine concentration ([2]; with beta-glucuronidase, UGT2B17 *1/*1 (n = 8), listed as 17-HEXE): 2.3 ± 1.2 ng/mL | C24 hr (SD), 24-hr urine concentration [2, 5]: 0.5 (0.3) ng/ml | C24 hr (SD), 24-hr urine concentration ([2]; with beta-glucuronidase, UGT2B17 *2/*2 (n = 6), listed as 17-HEXE): 0.5 ± 0.3 ng/mL | C24 hr (SD), 24-hr urine concentration [2, 6]: 0.4 (0.2) ng/ml | C24 hr (SD), 24-hr urine concentration [2, 7]: 0.4 (0.3) ng/ml | difference in the AUC of conjugated 17-hydroexemestane between high and poor expressers ([3]; UGT2B17 *1/*1 vs *2/*2, plasma): ~8 fold | AUC, range in our pharmacokinetic study [3, 8]: 0.7 to 26.9 ng·h/mL | Cmax, range in our pharmacokinetic study [3, 8]: 0.1 to 2.7 ng/mL | AUC0-8 ([3]; plasma, with beta-glucuronidase (+BG), UGT2B17*1/*1 carriers, single oral 25 mg exemestane): 7.3 ± 2.6 ng·h/mL | Plasma concentrations at 24 and 72 hours after exemestane administration ([3]; single oral 25 mg exemestane): below the lowest limit of quantification

concentration at 24 h [2, 4]: 1.7 ± 1 ng/mL | concentration at 24 h [2, 5]: 2.1 ± 1.6 ng/mL | concentration at 24 h [2, 6]: 1.9 ng/mL | concentration at 24 h [2, 7]: 2.5 ng/mL | C24 hr (SD), 24-hr urine concentration [2, 4]: 1.7 (1.0) ng/ml | C24 hr (SD), 24-hr urine concentration [2, 5]: 2.1 (1.6) ng/ml | AUC ([3]; female, human, plasma, po, 25 mg): 9.2 to 40.6 ng·h/mL | AUC(0-t) ([3]; female, human, plasma, po, 25 mg, with beta-glucuronidase (+BG), UGT2B17*1/*1 carriers, single oral 25 mg exemestane): 16.2 ± 3.5 ng·h/mL | AUC(0-t) ([3]; female, human, plasma, po, 25 mg, with beta-glucuronidase (+BG), UGT2B17*2/*2 carriers, single oral 25 mg exemestane): 15.5 ± 4.2 ng·h/mL | AUC(0-inf) [3, 9]: 19.8 ng·h/mL | AUC(0-inf) [3, 10]: 19 ng·h/mL | AUC(0-inf) [3, 11]: 22.7 ng·h/mL | AUC(0-inf) [3, 12]: 19.7 ng·h/mL | Cmax [3, 9]: 4.4 ng/mL | Cmax [3, 10]: 5.2 ng/mL | Cmax [3, 11]: 5.6 ng/mL | Cmax [3, 12]: 5.3 ng/mL | Tmax [3, 9]: 3.1 h | Tmax [3, 10]: 1.9 h | Tmax [3, 11]: 3.1 h | Tmax [3, 12]: 1.7 h | Plasma concentrations at 24 and 72 hours after exemestane administration ([3]; single oral 25 mg exemestane): below the lowest limit of quantification
Structure (SMILES): C=C1C[C@@H]2[C@H](CC[C@]3(C)C(=O)CC[C@@H]23)[C@@]2(C)C=CC(=O)C=C12 [Exemestane]
maximal plasma concentrations (Cmax), range in previous studies [1]: 3.0 to 16.1 ng/mL | plasma concentrations over time (AUC), range in previous studies [1]: 25.6 to 98.1 ng·h/mL
